Data: patent publication US11254668B2, “Pyrazolo[1,5-A]pyrazin-4-yl and related derivatives” (Pfizer Inc., priority 2017, dated 2022)
Where two headings read alike, the source gives them in different places.

Columns and labels:
Type in all cases: biochemical
TYK2 = TYK2 (Homo sapiens (Human), UniProt P29597); assay: JAK Caliper Enzyme Assay at 1 mM ATP, TYK2
Description: (§1) Compounds of the invention were evaluated by in vitro methods to determine their respective ability to inhibit the JAK kinases (TYK2, JAK1, JAK2, JAK3).
(§2) The human JAK inhibitory activity was determined by using a microfluidic assay to monitor phosphorylation of a synthetic peptide by the recombinant human kinase domain of each of the four members of the JAK family, JAK1, JAK2, JAK3 and TYK2. […] Each assay condition was optimized for enzyme concentration and room temperature incubation time to obtain a conversion rate of 20% to 30% phosphorylated peptide product. Reactions were terminated by the addition of stop buffer containing EDTA. Utilizing the LabChip 3000 mobility shift technology (Caliper Life Science), each assay reaction was sampled to determine the level of phosphorylation. This technology is separation-based, allowing direct detection of fluorescently labeled substrates and products. Separations are controlled by a combination of vacuum pressure and electric field strength optimized for each peptide substrate.
(§3) JAK Caliper Enzyme Assay at 1mM ATP
(§4) Compounds were added to a 384-well plate.
(§5) The data was collected using the HTS Well Analyzer software from Caliper Life Sciences. The data output for data analysis is the percent product converted calculated on peak height (Equation 1). % product converted=100*((product)/(product+substrate)) Equation 1: […]
(§6) The percent effect at each compound concentration was calculated based on the positive and negative control well contained within each assay plate (Equation 2). […] The negative control wells contained DMSO alone (at the same concentration as the compound wells) that was used to set the baseline activity in the assay (i.e., uninhibited JAK1, JAK2, JAK3 or TYK2). % effect=100*([…](positive control-negative control)) Equation 2: […]
(§7) The percent effect was plotted against the compound concentration compound.

JAK1 = JAK1 (Homo sapiens (Human), UniProt P23458); assay: JAK Caliper Enzyme Assay at 1 mM ATP, JAK1
Description: as §1, §2, §3, §4, §5, §6, §7

JAK2 = JAK2 (Homo sapiens (Human), UniProt O60674); assay: JAK Caliper Enzyme Assay at 1 mM ATP, JAK2
Description: as §1, §2, §3, §4, §5, §6, §7

JAK3 = JAK3 (Homo sapiens (Human), UniProt P52333); assay: JAK Caliper Enzyme Assay at 1 mM ATP, JAK3
Description: as §1, §2, §3, §4, §5, §6, §7

Chain of JAK2 (O60674 849-1124): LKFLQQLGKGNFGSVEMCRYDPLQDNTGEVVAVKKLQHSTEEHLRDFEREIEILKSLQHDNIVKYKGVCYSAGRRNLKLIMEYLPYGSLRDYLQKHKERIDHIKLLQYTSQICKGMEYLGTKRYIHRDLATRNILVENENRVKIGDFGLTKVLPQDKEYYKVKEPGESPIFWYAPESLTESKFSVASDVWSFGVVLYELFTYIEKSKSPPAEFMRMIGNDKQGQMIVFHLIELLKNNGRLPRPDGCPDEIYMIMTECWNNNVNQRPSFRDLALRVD
Chain of JAK1 (P23458 875-1153): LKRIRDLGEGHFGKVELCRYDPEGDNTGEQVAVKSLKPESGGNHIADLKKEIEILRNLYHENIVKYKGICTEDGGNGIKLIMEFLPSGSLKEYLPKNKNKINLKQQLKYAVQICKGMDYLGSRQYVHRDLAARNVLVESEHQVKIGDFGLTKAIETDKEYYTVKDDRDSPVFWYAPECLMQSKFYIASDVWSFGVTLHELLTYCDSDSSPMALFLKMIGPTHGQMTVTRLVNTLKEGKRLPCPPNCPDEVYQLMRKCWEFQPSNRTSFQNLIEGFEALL
Chain of JAK3 (P52333 822-1111): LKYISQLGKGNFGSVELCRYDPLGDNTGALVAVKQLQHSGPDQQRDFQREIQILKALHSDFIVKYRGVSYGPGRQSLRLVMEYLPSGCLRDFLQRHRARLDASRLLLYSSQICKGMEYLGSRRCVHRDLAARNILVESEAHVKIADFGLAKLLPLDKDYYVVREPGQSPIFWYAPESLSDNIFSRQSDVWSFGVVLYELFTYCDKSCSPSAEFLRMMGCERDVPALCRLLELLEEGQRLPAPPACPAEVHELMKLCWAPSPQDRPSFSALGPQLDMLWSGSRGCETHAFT
Chain of TYK2 (P29597 897-1176): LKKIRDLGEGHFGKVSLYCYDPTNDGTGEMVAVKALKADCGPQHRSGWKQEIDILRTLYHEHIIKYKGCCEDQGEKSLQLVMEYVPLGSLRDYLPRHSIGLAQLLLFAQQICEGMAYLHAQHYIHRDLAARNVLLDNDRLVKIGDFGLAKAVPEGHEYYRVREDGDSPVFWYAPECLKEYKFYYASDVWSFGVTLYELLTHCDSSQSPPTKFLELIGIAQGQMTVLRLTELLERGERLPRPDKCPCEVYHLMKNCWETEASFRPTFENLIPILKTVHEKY

N#CC[C@]1(n2ncc(-c3cc(-c4cncnc4)cc4ncccc34)n2)C[C@@H](C#N)C1 [Example 391, cis-3-(cyanomethyl)-3-{4-[7-(pyrimidin-5-yl)quinolin-5-yl]-2H-1,2,3-triazol-2-yl}cyclobutanecarbonitrile]
IC50 (TYK2; JAK Caliper enzyme assay): 2.84 µM | IC50 (JAK1; JAK Caliper enzyme assay): > 10 µM | IC50 (JAK2; JAK Caliper enzyme assay): 9.84 µM | IC50 (JAK3; JAK Caliper enzyme assay): > 10 µM

N#CCC1(n2ccc(-c3nc(-c4cc(CO)[nH]n4)cc4ncccc34)n2)CC(C#N)C1 (stereo not drawn) [Example 48, trans-3-(cyanomethyl)-3-(3-{7-[5-(hydroxymethyl)-1H-pyrazol-3-yl]-1,6-naphthyridin-5-yl}-1H-pyrazol-1-yl)cyclobutanecarbonitrile]
IC50 (TYK2): 0.015 µM | IC50 (JAK1): 0.292 µM | IC50 (JAK2): 0.073 µM | IC50 (JAK3): > 10 µM

Cn1nc(-c2cc3ncccc3c(-c3ccn([C@]4(CC#N)C[C@@H](C#N)C4)n3)n2)cc1CN [Example 71, trans-3-(3-{7-[5-(aminomethyl)-1-methyl-1H-pyrazol-3-yl]-1,6-naphthyridin-5-yl}-1H-pyrazol-1-yl)-3-(cyanomethyl)cyclobutanecarbonitrile]
IC50 (TYK2): 0.109 µM | IC50 (JAK1): 3.72 µM | IC50 (JAK2): 0.205 µM | IC50 (JAK3): 7.93 µM

Cc1cncc(-c2cc(-c3cnn([C@]4(CC#N)C[C@@H](C#N)C4)n3)c3cccnc3c2)n1 [Example 403, trans-3-(cyanomethyl)-3-{4-[7-(6-methylpyrazin-2-yl)quinolin-5-yl]-2H-1,2,3-triazol-2-yl}cyclobutanecarbonitrile]
IC50 (TYK2; JAK Caliper enzyme assay): 7.19 µM | IC50 (JAK1; JAK Caliper enzyme assay): > 10 µM | IC50 (JAK2; JAK Caliper enzyme assay): > 10 µM | IC50 (JAK3; JAK Caliper enzyme assay): > 10 µM

Cc1cc(-c2cc3ncccc3c(-c3ccn(C4(CC#N)CN(CC(F)(F)F)C4)n3)n2)c[nH]c1=O [Example 250, [3-{3-[7-(5-methyl-6-oxo-1,6-dihydropyridin-3-yl)-1,6-naphthyridin-5-yl]-1H-pyrazol-1-yl}-1-(2,2,2-trifluoroethyl)azetidin-3-yl]acetonitrile]
IC50 (TYK2): 0.055 µM | IC50 (JAK1): 1.26 µM | IC50 (JAK2): 0.821 µM | IC50 (JAK3): > 10 µM

CS(=O)(=O)c1ccc(-c2cc3ncccc3c(-c3ccn([C@]4(CC#N)C[C@@H](C#N)C4)n3)n2)cn1 [Example 208, trans-3-(cyanomethyl)-3-(3-{7-[6-(methylsulfonyl)pyridin-3-yl]-1,6-naphthyridin-5-yl}-1H-pyrazol-1-yl)cyclobutanecarbonitrile]
IC50 (TYK2): 0.081 µM | IC50 (JAK1): 2.58 µM | IC50 (JAK2): 0.362 µM | IC50 (JAK3): > 10 µM

COc1cc(-c2cc3ncccc3c(-c3ccn(C4(CC#N)CN(S(C)(=O)=O)C4)n3)n2)ccn1 [Example 189]
IC50 (TYK2): 0.084 µM | IC50 (JAK1): 8.34 µM | IC50 (JAK2): 0.725 µM | IC50 (JAK3): > 10 µM

CO[C@H]1C[C@@](CC#N)(n2cc(-c3nc(-c4cnn(CCO)c4)cc4ncccc34)cn2)C1 [Example 8, [cis-1-(4-{7-[1-(2-hydroxyethyl)-1H-pyrazol-4-yl]-1,6-naphthyridin-5-yl}-1H-pyrazol-1-yl)-3-methoxycyclobutyl]acetonitrile]
IC50 (TYK2): 0.13 µM | IC50 (JAK1): 0.661 µM | IC50 (JAK2): 0.126 µM | IC50 (JAK3): > 10 µM

CC(=O)Nc1cccc(-c2cc(-c3cnn(C4(CC#N)CC(C#N)C4)n3)c3cccnc3c2)n1 (stereo not drawn) [Example 377, N-[6-(5-{2-[cis-3-cyano-1-(cyanomethyl)cyclobutyl]-2H-1,2,3-triazol-4-yl}quinolin-7-yl)pyridin-2-yl]acetamide]
IC50 (TYK2; JAK Caliper enzyme assay): 0.014 µM | IC50 (JAK1; JAK Caliper enzyme assay): 0.073 µM | IC50 (JAK2; JAK Caliper enzyme assay): 0.033 µM | IC50 (JAK3; JAK Caliper enzyme assay): 1.35 µM

N#CCC1(n2ccc(-c3nc(-c4ccc5nncn5c4)cc4ncccc34)n2)CN(CC(F)(F)F)C1 [Example 167, [3-{3-[7-([1,2,4]triazolo[4,3-a]pyridin-6-yl)-1,6-naphthyridin-5-yl]-1H-pyrazol-1-yl}-1-(2,2,2-trifluoroethyl)azetidin-3-yl]acetonitrile]
IC50 (TYK2): 0.129 µM | IC50 (JAK1): 2.73 µM | IC50 (JAK2): 1.29 µM | IC50 (JAK3): > 10 µM

Cn1ccc(-c2cc(-c3cnn([C@]4(CC#N)C[C@H](C#N)C4)n3)c3cccnc3c2)n1 [Example 313, cis-3-(cyanomethyl)-3-{4-[7-(1-methyl-1H-pyrazol-3-yl)quinolin-5-yl]-2H-1,2,3-triazol-2-yl}cyclobutanecarbonitrile]
IC50 (TYK2): 0.025 µM | IC50 (JAK1): 0.486 µM | IC50 (JAK2): 0.079 µM | IC50 (JAK3): 5.47 µM

N#CC[C@]1(n2ccc(-c3nc(-c4cc(N)cnn4)cc4ncccc34)n2)C[C@H](C#N)C1 [Example 241, trans-3-{3-[7-(5-aminopyridazin-3-yl)-1,6-naphthyridin-5-yl]-1H-pyrazol-1-yl}-3-(cyanomethyl)cyclobutanecarbonitrile]
IC50 (TYK2): 3.39 µM | IC50 (JAK1): > 10 µM | IC50 (JAK2): > 10 µM | IC50 (JAK3): > 10 µM

Cc1cncc(-c2cc(-c3cnn([C@]4(CC#N)C[C@H](C#N)C4)n3)c3cccnc3c2)n1 [Example 402, cis-3-(cyanomethyl)-3-{4-[7-(6-methylpyrazin-2-yl)quinolin-5-yl]-2H-1,2,3-triazol-2-yl}cyclobutanecarbonitrile]
IC50 (TYK2; JAK Caliper enzyme assay): 2.53 µM | IC50 (JAK1; JAK Caliper enzyme assay): > 10 µM | IC50 (JAK2; JAK Caliper enzyme assay): 6.29 µM | IC50 (JAK3; JAK Caliper enzyme assay): > 10 µM

N#CC[C@]1(n2ncc(-c3cc(-c4cnc5c(N)nccn45)cc4ncccc34)n2)C[C@@H](C#N)C1 [Example 422, cis-3-{4-[7-(8-aminoimidazo[1,2-a]pyrazin-3-yl)quinolin-5-yl]-2H-1,2,3-triazol-2-yl}-3-(cyanomethyl)cyclobutanecarbonitrile]
IC50 (TYK2; JAK Caliper enzyme assay): 0.292 µM | IC50 (JAK1; JAK Caliper enzyme assay): 5.38 µM | IC50 (JAK2; JAK Caliper enzyme assay): 1.47 µM | IC50 (JAK3; JAK Caliper enzyme assay): > 10 µM

N#CC[C@]1(n2ccc(-c3nc(-c4ccc(N)cn4)cc4ncccc34)n2)C[C@@H](C#N)C1 [Example 190, cis-3-{3-[7-(5-aminopyridin-2-yl)-1,6-naphthyridin-5-yl]-1H-pyrazol-1-yl}-3-(cyanomethyl)cyclobutanecarbonitrile]
IC50 (TYK2): 0.055 µM | IC50 (JAK1): 1.31 µM | IC50 (JAK2): 0.596 µM | IC50 (JAK3): > 10 µM

Cc1cc(-c2nc(-c3cc(N)n(C)n3)cc3ncccc23)nn1[C@]1(CC#N)C[C@H](C#N)C1 [Example 271, cis-3-{3-[7-(5-amino-1-methyl-1H-pyrazol-3-yl)-1,6-naphthyridin-5-yl]-5-methyl-1H-pyrazol-1-yl}-3-(cyanomethyl)cyclobutanecarbonitrile]
IC50 (TYK2): 0.016 µM | IC50 (JAK1): 0.429 µM | IC50 (JAK2): 0.046 µM | IC50 (JAK3): 7.07 µM

CS(=O)(=O)N1CC(CC#N)(n2ccc(-c3nc(-c4ccn5ccnc5c4)cc4ncccc34)n2)C1 [Example 163, [3-{3-[7-(imidazo[1,2-a]pyridin-7-yl)-1,6-naphthyridin-5-yl]-1H-pyrazol-1-yl}-1-(methylsulfonyl)azetidin-3-yl]acetonitrile]
IC50 (TYK2): 0.042 µM | IC50 (JAK1): 4.07 µM | IC50 (JAK2): 0.294 µM | IC50 (JAK3): > 10 µM

Cc1cc(-c2cc(-c3cnn([C@]4(CC#N)C[C@H](C#N)C4)c3)n3ccnc3c2)n[nH]1 [Example 462, cis-3-(cyanomethyl)-3-{4-[7-(5-methyl-1H-pyrazol-3-yl)imidazo[1,2-a]pyridin-5-yl]-1H-pyrazol-1-yl}cyclobutanecarbonitrile]
IC50 (TYK2; JAK Caliper enzyme assay): 0.02 µM | IC50 (JAK1; JAK Caliper enzyme assay): 0.873 µM | IC50 (JAK2; JAK Caliper enzyme assay): 0.188 µM | IC50 (JAK3; JAK Caliper enzyme assay): > 10 µM

Cc1cc(-c2nc(-c3cn[nH]c3N)cc3ncccc23)nn1[C@]1(CC#N)C[C@@H](C#N)C1 [Example 275, trans-3-{3-[7-(5-amino-1H-pyrazol-4-yl)-1,6-naphthyridin-5-yl]-5-methyl-1H-pyrazol-1-yl}-3-(cyanomethyl)cyclobutanecarbonitrile]
IC50 (TYK2): 0.013 µM | IC50 (JAK1): 0.038 µM | IC50 (JAK2): 0.02 µM | IC50 (JAK3): 2.65 µM

Cc1cc(-c2cc3ncccc3c(-c3ccn(C4(CC#N)CN(S(C)(=O)=O)C4)n3)n2)cnc1N [Example 219, [3-{3-[7-(6-amino-5-methylpyridin-3-yl)-1,6-naphthyridin-5-yl]-1H-pyrazol-1-yl}-1-(methylsulfonyl)azetidin-3-yl]acetonitrile]
IC50 (TYK2): 0.488 µM | IC50 (JAK1): 6.41 µM | IC50 (JAK2): 1.75 µM | IC50 (JAK3): > 10 µM

Cc1cc(-c2cc(-c3cc[nH]n3)cc3ncccc23)nn1C1(CC#N)CN(S(C)(=O)=O)C1 [Example 293, [3-{5-methyl-3-[7-(1H-pyrazol-3-yl)quinolin-5-yl]-1H-pyrazol-1-yl}-1-(methylsulfonyl)azetidin-3-yl]acetonitrile]
IC50 (TYK2): 0.081 µM | IC50 (JAK1): 8.19 µM | IC50 (JAK2): 2.98 µM | IC50 (JAK3): > 10 µM

N#CCC1(n2ccc(-c3nc(-c4cncnc4)cc4ncccc34)n2)CN(CC(F)(F)F)C1 [Example 234, [3-{3-[7-(pyrimidin-5-yl)-1,6-naphthyridin-5-yl]-1H-pyrazol-1-yl}-1-(2,2,2-trifluoroethyl)azetidin-3-yl]acetonitrile]
IC50 (TYK2): 2.66 µM | IC50 (JAK1): > 10 µM | IC50 (JAK2): > 10 µM | IC50 (JAK3): > 10 µM
